According to US10550102B2, “Indane and indoline derivatives and the use thereof as soluble guanylate cyclase activators” (NOVARTIS AG, priority 2014, dated 2020):

target: soluble guanylate cyclase (human GUCYA3 and GUCYB3) overexpressed in CHO cells (Homo sapiens (Human), UniProt Q02108+Q02153); test: CHO cellular assay (cGMP production, Cisbio cGMP HTRF kit); format: cell-based; conditions: CHO GUCY clone 8E10, cGMP production, assay buffer with 1 mM IBMX and 20 uM ODQ, 1 h room temperature; minimum quantification limit 0.5 nM (listed 0.5 nM means ≤0.5 nM); read-out: EC50
In short: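 Stable CHO-K1 clone 8E10 expressing human sGC (GUCYA3/GUCYB3), 3000 cells/well, exposed 1 h at room temperature to activators in HBSS, 0.1% BSA, 1 mM IBMX, 20 uM ODQ, 0.5% DMSO final. cGMP was measured by HTRF and interpolated from a standard curve. EC50 came from a 4-parameter sigmoidal fit.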

Sequence of soluble guanylate cyclase (human GUCYA3 and GUCYB3) overexpressed in CHO cells (Q02108 whole entry partner): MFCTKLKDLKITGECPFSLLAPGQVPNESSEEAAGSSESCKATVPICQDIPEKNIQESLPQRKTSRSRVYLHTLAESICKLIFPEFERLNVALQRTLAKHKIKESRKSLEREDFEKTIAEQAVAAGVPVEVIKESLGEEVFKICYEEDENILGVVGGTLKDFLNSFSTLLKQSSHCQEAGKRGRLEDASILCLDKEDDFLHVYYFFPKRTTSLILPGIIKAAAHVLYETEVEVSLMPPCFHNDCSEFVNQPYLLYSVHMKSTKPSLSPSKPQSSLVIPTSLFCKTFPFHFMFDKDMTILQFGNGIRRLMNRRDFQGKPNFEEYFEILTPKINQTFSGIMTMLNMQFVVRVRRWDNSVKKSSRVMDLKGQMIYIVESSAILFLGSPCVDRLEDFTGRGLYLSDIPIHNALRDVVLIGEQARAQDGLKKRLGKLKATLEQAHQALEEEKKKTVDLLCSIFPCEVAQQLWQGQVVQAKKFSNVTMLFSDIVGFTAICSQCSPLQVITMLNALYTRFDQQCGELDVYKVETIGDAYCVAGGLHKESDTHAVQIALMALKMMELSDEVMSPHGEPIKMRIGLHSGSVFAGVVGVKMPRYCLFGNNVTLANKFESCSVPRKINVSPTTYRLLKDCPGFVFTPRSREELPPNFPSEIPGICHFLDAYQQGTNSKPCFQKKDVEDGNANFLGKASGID
Sequence of soluble guanylate cyclase (human GUCYA3 and GUCYB3) overexpressed in CHO cells (Q02153 whole entry): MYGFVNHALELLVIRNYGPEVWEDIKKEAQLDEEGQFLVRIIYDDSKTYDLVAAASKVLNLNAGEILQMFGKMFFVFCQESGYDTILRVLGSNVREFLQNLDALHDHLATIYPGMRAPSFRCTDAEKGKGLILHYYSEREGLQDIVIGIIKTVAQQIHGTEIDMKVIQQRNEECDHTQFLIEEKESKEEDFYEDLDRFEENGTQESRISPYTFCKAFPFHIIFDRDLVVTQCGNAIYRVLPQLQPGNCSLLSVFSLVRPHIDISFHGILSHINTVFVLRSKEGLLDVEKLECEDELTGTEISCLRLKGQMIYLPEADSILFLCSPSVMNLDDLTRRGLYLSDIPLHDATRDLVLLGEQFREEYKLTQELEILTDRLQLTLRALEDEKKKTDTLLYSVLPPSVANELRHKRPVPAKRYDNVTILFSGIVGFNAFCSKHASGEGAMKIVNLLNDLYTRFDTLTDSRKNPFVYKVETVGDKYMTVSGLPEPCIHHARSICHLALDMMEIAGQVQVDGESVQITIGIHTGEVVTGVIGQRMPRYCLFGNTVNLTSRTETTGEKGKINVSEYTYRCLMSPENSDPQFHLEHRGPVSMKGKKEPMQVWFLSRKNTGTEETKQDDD

Row | Compound | EC50 [nM]
1 | Cc1nnc(N2CCC(c3ccc(NC4CCc5cccc(-c6cccc(-n7ncc(C(=O)O)c7C)n6)c54)c(C)c3)CC2)o1 (single isomer, unassigned; (-)) [58. b). (−), (−)-5-methyl-1-(6-(3-((2-methyl-4-(1-(5-methyl-1,3,4-oxadiazol-2-yl)piperidin-4-yl)phenyl)amino)-2,3-dihydro-1H-inden-4-yl)pyridin-2-yl)-1H-pyrazole-4-carboxylic acid] | 3.2
2 | CCc1c(C(=O)O)cnn1-c1cccc(-c2cccc3c2N(Cc2ccc(C4CCN(C(=O)C5CC5)CC4)cc2C)CC3C)n1 (single isomer, unassigned; (-)) [(−)-20-2, (−)-1-(6-(1-(4-(1-(Cyclopropanecarbonyl)piperidin-4-yl)-2-methylbenzyl)-3-methylindolin-7-yl)pyridin-2-yl)-5-ethyl-1H-pyrazole-4-carboxylic acid] | 1
3 | CCc1cc(NC2COc3cccc(-c4cccc(-n5ncc(C(=O)O)c5C(F)(F)F)n4)c32)ccc1C1CCN(C(=O)C2CC2)CC1 (single isomer, unassigned; (-)) [(−)-36-1, (−)-1-(6-(3-((4-(1-(Cyclopropanecarbonyl)piperidin-4-yl)-3-ethylphenyl)amino)-2,3-dihydrobenzofuran-4-yl)pyridin-2-yl)-5-(trifluoromethyl)-1H-pyrazole-4-carboxylic acid] | 20
4 | CCc1cc(NC2COc3cccc(-c4cccc(-n5ncc(C(=O)O)c5CC)n4)c32)ccc1C1CCN(C(=O)C2CC2)CC1 (single isomer, unassigned; (-)) [(−)-36-2, (−)-1-(6-(3-((4-(1-(Cyclopropanecarbonyl)piperidin-4-yl)-3-ethylphenyl)amino)-2,3-dihydrobenzofuran-4-yl)pyridin-2-yl)-5-ethyl-1H-pyrazole-4-carboxylic acid] | 1
5 | Cc1cc(C2CCN(C(=O)C(C)C)CC2)ccc1NC1CCc2cccc(-c3cccc(-n4ncc(C(=O)O)c4C)n3)c21 (single isomer, unassigned; (-)) [(−)-46-1, (−)-1-(6-(3-((4-(1-isobutyrylpiperidin-4-yl)-2-methylphenyl)amino)-2,3-dihydro-1H-inden-4-yl)pyridin-2-yl)-5-methyl-1H-pyrazole-4-carboxylic acid] | 100
6 | CCC(=O)N1CCC(c2ccc(NC3CCc4cccc(-c5cccc(-n6ncc(C(=O)O)c6C)n5)c43)c(C)c2)CC1 (single isomer, unassigned; (-)) [(−)-46-2] | 160
7 | Cc1cc(C2CCN(C(=O)CC3CC3)CC2)ccc1NC1CCc2cccc(-c3cccc(-n4ncc(C(=O)O)c4C)n3)c21 (single isomer, unassigned; (-)) [(−)-46-3, (−)-1-(6-(3-((4-(1-(2-Cyclopropylacetyl)piperidin-4-yl)-2-methylphenyl)amino)-2,3-dihydro-1H-inden-4-yl)pyridin-2-yl)-5-methyl-1H-pyrazole-4-carboylic acid] | 303
8 | Cc1cc(C2CCN(C(=O)CC3CC3)CC2)c(F)cc1NC1CCc2cccc(-c3cccc(-n4ncc(C(=O)O)c4C)n3)c21 (single isomer, unassigned; (-)) [(−)-46-5, (−)-1-(6-(3-((4-(1-(2-Cyclopropylacetyl)piperidin-4-yl)-5-fluoro-2-methylphenyl)amino)-2,3-dihydro-1H-inden-4-yl)pyridin-2-yl)-5-methyl-1H-pyrazole-4-carboxylic acid] | 681
9 | CCOC(=O)N1CCC(c2ccc(NC3CCc4cccc(-c5cccc(-n6ncc(C(=O)O)c6CC)n5)c43)cc2CC)CC1 (single isomer, unassigned; (-)) [(−)-52-1, (−)-1-(6-(3-((4-(1-(Ethoxycarbonyl)piperidin-4-yl)-3-ethylphenyl)amino)-2,3-dihydro-1H-inden-4-yl)pyridin-2-yl)-5-ethyl-1H-pyrazole-4-carboxylic acid] | 19
10 | CCc1cc(NC2CCc3cccc(-c4cccc(-n5ncc(C(=O)O)c5CC)n4)c32)ccc1C1CCN(C(=O)OC)CC1 (single isomer, unassigned; (-)) [(−)-52-2, (−)-5-Ethyl-1-(6-(3-((3-ethyl-4-(1-(methoxycarbonyl)piperidin-4-yl)phenyl)amino)-2,3-dihydro-1H-inden-4-yl)pyridin-2-yl)-1H-pyrazole-4-carboxylic acid] | 1
11 | C=CCOC(=O)N1CCC(c2ccc(NC3CCc4cccc(-c5cccc(-n6ncc(C(=O)O)c6CC)n5)c43)cc2CC)CC1 (single isomer, unassigned; (-)) [(−)-52-3, (−)-1-(6-(3-((4-(1-((Allyloxy)carbonyl)piperidin-4-yl)-3-ethylphenyl)amino)-2,3-dihydro-1H-inden-4-yl)pyridin-2-yl)-5-ethyl-1H-pyrazole-4-carboxylic acid] | 3

More lines, now with the values ahead:

Row | EC50 [nM] | Compound
12 | 21 | CCc1cc(NC2CCc3cccc(-c4cccc(-n5ncc(C(=O)O)c5CC)n4)c32)ccc1C1CCN(C(=O)C2CC2)CC1 (single isomer, unassigned; (-)) [(−)-53-1, (−)-1-(6-(3-((4-(1-(cyclopropanecarbonyl)piperidin-4-yl)-3-ethylphenyl)amino)-2,3-dihydro-1H-inden-4-yl)pyridin-2-yl)-5-ethyl-1H-pyrazole-4-carboxylic acid]
13 | 59 | Cc1cc(C2CCN(C(=O)CC3CC3)CC2)cc(F)c1NC1CCc2cccc(-c3cccc(-n4ncc(C(=O)O)c4C)n3)c21 (single isomer, unassigned; (-)) [(−)-53-3, (−)-1-(6(3-((4-(1-(2-cyclopropylacetyl)piperidin-4-yl)-2-fluoro-6-methylphenyl)amino)-2,3-dihydro-1H-inden-4-yl)pyridin-2-yl)-5-methyl-1H-pyrazole-4-carboxylic acid]
14 | 24 | Cc1cc(C2CCN(C(=O)C3CC3)CC2)ccc1NC1CCc2cccc(-c3cccc(-n4ncc(C(=O)O)c4C(F)F)n3)c21 (single isomer, unassigned; (-)) [(−)-53-4, (−)-1-(6-(3-((4-(1-(cyclopropanecarbonyl)piperidin-4-yl)-2-methylphenyl)amino)-2,3-dihydro-1H-inden-4-yl)pyridin-2-yl)-5-(difluoromethyl)-1H-pyrazole-4-carboxylic acid]
15 | 24 | Cc1cc(C2CCN(C(=O)C3CC3)CC2)ccc1NC1CCc2cccc(-c3cccc(-n4ncc(C(=O)O)c4C(F)(F)F)c3)c21 (single isomer, unassigned; (-)) [Example 6. b). (−), (−)-1-(3-(3-((4-(1-(cyclopropanecarbonyl)piperidin-4-yl)-2-methylphenyl)amino)-2,3-dihydro-1H-inden-4-yl)phenyl)-5-(trifluoromethyl)-1H-pyrazole-4-carboxylic acid]
16 | 2.4 | Cc1cc(C2CCN(C(=O)C3CC3)CC2)ccc1NC1CCc2cccc(-c3cccc(-n4ncc(C(=O)O)c4C)n3)c21 (single isomer, unassigned; (-)) [Example 7b, (−)-1-(6-(3-((4-(1-(Cyclopropanecarbonyl)piperidin-4-yl)-2-methylphenyl)amino)-2,3-dihydro-1H-inden-4-yl)pyridin-2-yl)-5-methyl-1H-pyrazole-4-carboxylic Acid]
17 | 184 | Cc1c(C(=O)O)cnn1-c1cccc(-c2cccc3c2C(Nc2ccc(C4CCN(C(=O)C5CC5)CC4)cc2)CC3)n1 (single isomer, unassigned; (-)) [Example 9. b). (−), (−)-1-(6-(3-((4-(1-(cyclopropanecarbonyl)piperidin-4-yl)phenyl)amino)-2,3-dihydro-1H-inden-4-yl)pyridin-2-yl)-5-methyl-1H-pyrazole-4-carboxylic acid]
18 | 49 | CCc1c(C(=O)O)cnn1-c1cccc(-c2cccc3c2C(Nc2ccc(C4CCN(C(=O)C5CC5)CC4)cc2C)CC3)n1 (single isomer, unassigned; (-)) [Example 10b, (−)-1-(6-(3-((4-(1-(Cyclopropanecarbonyl)piperidin-4-yl)-2-methylphenyl)amino)-2,3-dihydro-1H-inden-4-yl)pyridin-2-yl)-5-ethyl-1H-pyrazole-4-carboxylic Acid]
19 | 3.9 | Cc1cc(C2CCN(C(=O)C3CC3)CC2)ccc1NC1COc2cccc(-c3cccc(-n4ncc(C(=O)O)c4C)n3)c21 (single isomer, unassigned; (-)) [Example 34b]
20 | 17 | Cc1cc(C2CCN(C(=O)[C@H](C)O)CC2)ccc1NC1COc2cccc(-c3cccc(-n4ncc(C(=O)O)c4C)n3)c21 (single isomer, unassigned; (-)) [Example 35b]
21 | 6.3 | Cc1cc(C2CCN(C(=O)C3CC3)CC2)ccc1CC1CCc2cccc(-c3cccc(-n4ncc(C(=O)O)c4C)n3)c21 (single isomer, unassigned; (-)) [Example 37. b). (−), (−)-1-(6-(3-(4-(1-(cyclopropanecarbonyl)piperidin-4-yl)-2-methylbenzyl)-2,3-dihydro-1H-inden-4-yl)pyridin-2-yl)-5-methyl-1H-pyrazole-4-carboxylic Acid]
22 | 1 | CCc1cc(CC2CCc3cccc(-c4cccc(-n5ncc(C(=O)O)c5CC)n4)c32)ccc1C1CCN(C(=O)[C@H](C)O)CC1 (single isomer, unassigned; (-)) [Example 39. b). (−)]
23 | 18 | CCc1cc(CC2CCc3cccc(-c4cccc(-n5ncc(C(=O)O)c5CC)n4)c32)ccc1C1CCN(C(=O)OC)CC1 (single isomer, unassigned; (-)) [Example 41. b). (−), (−)-5-ethyl-1-(6-(3-(3-ethyl-4-(1-(methoxycarbonyl)piperidin-4-yl)benzyl)-2,3-dihydro-1H-inden-4-yl)pyridin-2-yl)-1H-pyrazole-4-carboxylic acid]
24 | 93 | CCc1c(C(=O)O)cnn1-c1cccc(-c2cccc3c2C(Cc2ccc(C4CCN(C(=O)OC)CC4)cc2C)CC3)n1 (single isomer, unassigned; (-)) [Example 42. b). (−), (−)-5-ethyl-1-(8-(3-(4-(1-(methoxycarbonyl)piperidin-4-yl)-2-methylbenzyl)-2,3-dihydro-1H-inden-4-yl)pyridin-2-yl)-1H-pyrazole-4-carboxylic acid]
